According to patent US12077502B2, “Formulations of T-type calcium channel modulators and methods of use thereof” (PRAXIS PRECISION MEDICINES, INC., priority 2019, dated 2024):

Assay: Safety and tolerability in the essential tremor clinical study
Type: in vivo, human
Details: 20 mg then 40 mg once a day, 14 days (formulation 5), emerging data

CC(C)(C)NC(=O)CN1CCC(CNC(=O)c2cc(F)cc(Cl)c2)CC1 [compound of formula (I)]
tolerability: well tolerated
